# Assay results: a melting point compilation (Tetko et al.; mined from patent text by program, amines drawn as free bases though some values may be those of a salt)
row,Compound,melting point
1,CCCCCCCCNC(=O)c1c(N)cc(Cl)cc1Cl,105 to 109 °C
2,CCOC(=O)c1cc2cc(F)cnc2n1Cc1ccncc1,236 to 237 °C
3,COc1cccc(CNC(=O)c2nc3ccc(-c4ccccc4)cc3c(=O)[nH]2)c1,202 to 204 °C
4,CC(=O)Nc1cnc2ccsc2c1,192 to 194 °C
5,O=C(Nc1ccc(-n2nc(C(F)(F)F)cc2C2CC2)cc1)c1cccc(F)c1F,147 to 152 °C
6,CC1C(=O)N(c2ccc(Sc3ccccc3)cc2)C(=S)N1c1ccccc1 (stereo not given),136 to 138 °C
7,NC(=O)CC[C@H]1CN(c2ccc(C(=O)c3cnc4ccc(C(F)(F)F)cn34)cc2)C(=O)O1,243 to 245 °C
8,FC(F)(F)c1cc(I)ccc1-c1ccc(I)cc1C(F)(F)F,119 to 120 °C
9,CC(=NOC(C)(C)C)c1cnc(NC(=O)[C@H](CC2CCCC2)c2ccc(S(C)(=O)=O)cc2)cn1,81 to 83 °C
10,CC1COc2c(F)c(F)c(N)c3c(=O)[nH]c(=O)n1c23 (stereo not given),> 280 °C
11,O=C1NCCN1c1cccc(Cl)c1,121 to 123 °C
12,Cc1c(O)ccc2cc(Br)ccc12,127 to 129 °C
13,ClCc1coc(-c2cc3c(s2)CCCC3)n1,102 to 103 °C
14,CCOC(=O)c1[nH]c(C)c2c1CCC2,166 to 167 °C
15,COC(=O)[C@H](Cc1ccccc1)NC(=S)Cc1ccc(C)cc1,84 to 86 °C
16,O=C(Nc1ccc2c(c1)CCC(CCN1CCCC1)=C2)c1ccc(-c2ccc(F)cc2)cc1,187 to 189 °C
17,NCCCNc1cccc2c1C(=O)c1ccccc1C2=O,106 to 108 °C
18,CNC(=O)c1cnn(-c2ccccn2)c1C#N,200 to 202 °C
19,COC(COc1cc(C)cc(O)c1)OC,73 to 75 °C
20,CCOC(=O)c1ncn(-c2nc(C)cs2)c1N,152 to 155 °C
21,CC(C)(C)OC(=O)N1CCC2(CC1)NC(c1nc(-c3ccccc3)c[nH]1)Cc1c2[nH]c2ccccc12 (stereo not given),118 to 120 °C
22,O=[N+]([O-])c1cccc(-c2nnc(NCc3cccc4ccccc34)s2)c1,150 to 151 °C
23,N#Cc1ccc(NC(=O)CN2CCC(Cc3ccc(F)cc3)CC2)cc1,113 to 116 °C
24,COc1ccc(-c2cc(S(N)(=O)=O)sc2-c2ccc(OC)c(S(N)(=O)=O)c2)cc1S(N)(=O)=O,242 to 244 °C
25,CS(=O)(=O)c1ccc(-c2cnn(-c3cccc(Cl)c3)c(=O)c2Cc2cccc(F)c2)cc1,142 to 143 °C

row,Compound,melting point
1,CCCCCCC(C(=O)OCC)n1c(C(F)(F)C(F)(F)F)nc2cc(-c3ccccc3-c3nn[nH]n3)ccc21 (stereo not given),70 to 72 °C
2,Cc1cccc(N2CCN(c3ccc(OCc4ccccc4)nn3)CC2)c1,159 °C
3,OC[C@@H]1CCCN1Cc1cc2cc3c(cc2c2cc(OCc4ccccc4)ccc12)OCO3,122 to 124 °C
4,O=CO[C@H]1CC[C@H](NC(=O)OCc2ccccc2)C1 (relative stereo),45 to 48 °C
5,CCOC(=O)C(=O)Nc1cc(C)c(C(=O)OCC)s1,141 to 142 °C
6,Cn1nc(C#N)c(Nc2ccccc2[N+](=O)[O-])n1,144 to 145 °C
7,CC(C=CC=C(C)c1cc(C(C)(C)C)cc(C(C)(C)C)c1)=CC(=O)O,196 to 198 °C
8,O=C(NCC12CC3CC(CC(C3)C1)C2)c1cc(I)cnc1Cl,163 to 164 °C
9,CCCCCCN(CCCCCC)c1c(N[C@@H](Cc2ccc(NC(=O)c3ccccc3)cc2)C(=O)O)c(=O)c1=O,95 to 100 °C
10,CCOCCOC(=O)C(=O)Nc1nc(-c2cc3ccccc3oc2=O)cs1,156 to 157 °C
11,O=C(O)COc1cc(F)c(Br)cc1C(=O)NCc1cccc([N+](=O)[O-])c1,169 to 172 °C
12,CCOC(=O)c1c(O)c2ccccc2[nH]c1=O,173 °C
13,CNCc1cc(Oc2ccc3c(C(=O)Nc4cccc(C(F)(F)F)c4)cccc3c2)ncn1,141 to 143 °C
14,O=S(=O)(Cc1ccccc1)c1ncc(Cl)cn1,122 to 124 °C
15,CC(C)OC(=O)c1cc(OC(C)C)ccc1[N+](=O)[O-],45 to 50 °C
16,CCOC1=C([N+](=O)[O-])CN(C(C)C)C1=O,47 °C
17,CN(C)c1ccc2cc(-c3ccnc(Cl)c3C#N)ccc2c1,198 to 200 °C
18,COC(=O)c1cccc(C=C(C)[N+](=O)[O-])c1O,119 to 121 °C
19,CCc1cc(C(=O)c2ccccc2Cl)c(-n2c(CNC(=O)c3cc4ccccc4[nH]3)nnc2-c2ccccc2)s1,230 to 232 °C
20,O=S(=O)(c1ccc(/C=C/c2nc(COc3ccc(CCCCn4ccnn4)cc3)co2)cc1)C(F)(F)F,133 to 135 °C
21,CC(C#CC1CC1)N(O)C(N)=O (stereo not given),142 to 143 °C
22,O=C(CNc1c(C(=O)O)[nH]c2cc(Cl)cc(Cl)c12)c1ccc(F)cc1,259 to 261 °C
23,C[C@@H]1C[C@H](I)[C@@H]2C[C@H]1C(=O)O2,99 to 100 °C
24,CCN(CC)C(=O)C(C)(C)n1cc(C)c(-c2ccccc2)n1,50 to 52 °C
25,CC(C)(C)OC(=O)N[C@H]1CC[C@@H](NC(=O)OC(C)(C)C)CC1,144 °C
